In patent US11807852B2, “Compositions and methods for reactivating latent immunodeficiency virus” (The J. David Gladstone Institutes, a testamentary trust …, priority 2014, dated 2023):

System: latent HIV-1 in human lymphocyte aggregate cultures (HLAC) from tonsils
Assay: Ex vivo infected tonsil HLAC latency model, HIV-luciferase reporter virus
Format: cell-based
Conditions: in combination with JQ1
Protocol: HLAC cells were isolated by Ficoll-Histopaque density gradient centrifugation of sheared tonsils from HIV-seronegative donors (Vanderbilt University Medical Center, Nashville, Tenn.). Isolated HLAC cells were counted, collected as pellets by centrifugation at 1500 rpm for 5 min at room temperature, and re-suspended in the appropriate volume of concentrated viral NL4.3-Luc supernatant. Typically, 50-100 ng of p24 Gag per […] HLAC were used. Spinoculations were performed in 96-well V-bottom plates in volumes of 200 μl or less. Cells and virus were centrifuged at 2000 rpm for 1.5-2 h at room temperature. After spinoculation, cells were pooled and cultured at 1×10^6 cells/ml in RPMI 1640 containing 10% FBS and supplemented with 5 μM Saquinavir (Sigma-Aldrich) for 3 days to prevent any residual spreading infection.
For reactivation of latent HIV-1 provirus, cells were counted and collected as pellets by centrifugation at 1500 rpm for 10 min. […] After 15 min of lysis, the luciferase activity in cell extracts was quantified with a Perkin Elmer EnSpire 2300 Multimode plate reader after mixing 20 μl of lysate with 100 μl of substrate (Luciferase Assay System-Promega). Relative light units (RLU) were normalized to protein content determined by Bradford assay (BioRad). Cell viability was measured with CellTiter-Blue Cell Viability Assay (Promega).

SMILES: N#Cc1cc(C(=O)NCCCN2CCCC2)cc(-c2ccccc2N2CCN(CCc3c[nH]c4ccccc34)CC2)c1 [AZ391]
- reactivation of latent HIV-1 (luciferase): Positive effects
- reactivation of latent HIV-1 (luciferase) (listed as X2): reactivates latent HIV-1
